Results as given in the supplement of paper PMC10307832.

Experiments:
Experiment in all cases: relative viability (nuclei count vs DMSO), 5 days (fraction); higher = more cells survive
A549 = test system: A549
Outline: (§1)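 Relative viability is defined as nuclei in treated wells over nuclei in vehicle wells. Duplicate plates were run and medians reported. Lung cancer cell lines in 1536-well plates were dosed by pin tool one day after seeding, with one drug or with a fixed anchor-drug dose plus five library-drug doses (not always all listed) in √10 steps, and nuclei were counted after 5 days.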

ABC-1 = test system: ABC-1
Outline: as §1

EMC-BAC-2 = test system: EMC-BAC-2
Outline: as §1

NCI-H1648 = test system: NCI-H1648
Outline: as §1

NCI-H2009 = test system: NCI-H2009
Outline: as §1

IA-LM = test system: IA-LM
Outline: as §1

NCI-H2228 = test system: NCI-H2228
Outline: as §1

Calu-6 = test system: Calu-6
Outline: as §1

EBC-1 = test system: EBC-1
Outline: as §1

NCI-H1299 = test system: NCI-H1299
Outline: as §1

NCI-H1703 = test system: NCI-H1703
Outline: as §1

CCNC(=O)c1noc(-c2cc(C(C)C)c(O)cc2O)c1-c1ccc(CN2CCOCC2)cc1 [Luminespib] + Nc1ncn([C@H]2C[C@H](O)[C@@H](CO)O2)c(=O)n1 [Decitabine] (partner 2 µM)
relative viability (A549; first compound 0.002 µM): 0.232 | relative viability (A549; first compound 0.006325 µM): 0.297 | relative viability (A549; first compound 0.02 µM): 0.191 | relative viability (A549; first compound 0.06325 µM): 0.0306 | relative viability (A549; first compound 0.2 µM): 0.0224 | relative viability (ABC-1; first compound 0.002 µM): 1.19 | relative viability (ABC-1; first compound 0.006325 µM): 1.18 | relative viability (ABC-1; first compound 0.02 µM): 1.16 | relative viability (ABC-1; first compound 0.06325 µM): 0.755 | relative viability (ABC-1; first compound 0.2 µM): 0.344 | relative viability (EMC-BAC-2; first compound 0.002 µM): 0.995 | relative viability (EMC-BAC-2; first compound 0.02 µM): 0.783 | relative viability (EMC-BAC-2; first compound 0.06325 µM): 0.564 | relative viability (EMC-BAC-2; first compound 0.2 µM): 0.237 | relative viability (NCI-H1648; first compound 0.002 µM): 0.534 | relative viability (NCI-H1648; first compound 0.006325 µM): 0.569 | relative viability (NCI-H1648; first compound 0.02 µM): 0.458 | relative viability (NCI-H1648; first compound 0.06325 µM): 0.489 | relative viability (NCI-H1648; first compound 0.2 µM): 0.301 | relative viability (NCI-H2009; first compound 0.002 µM): 0.405 | relative viability (NCI-H2009; first compound 0.006325 µM): 0.364 | relative viability (NCI-H2009; first compound 0.02 µM): 0.368 | relative viability (NCI-H2009; first compound 0.06325 µM): 0.187 | relative viability (NCI-H2009; first compound 0.2 µM): 0.135

CCNC(=O)c1noc(-c2cc(C(C)C)c(O)cc2O)c1-c1ccc(CN2CCOCC2)cc1 [Luminespib] + O=C(CCCCCCC(=O)Nc1ccccc1)NO [Vorinostat] (partner 1 µM)
relative viability (ABC-1; first compound 0.002 µM): 1.34 | relative viability (ABC-1; first compound 0.006325 µM): 0.291 | relative viability (ABC-1; first compound 0.02 µM): 1.06 | relative viability (ABC-1; first compound 0.06325 µM): 0.269 | relative viability (ABC-1; first compound 0.2 µM): 0.325 | relative viability (EMC-BAC-2; first compound 0.002 µM): 0.461 | relative viability (EMC-BAC-2; first compound 0.02 µM): 0.263 | relative viability (EMC-BAC-2; first compound 0.06325 µM): 0.148 | relative viability (EMC-BAC-2; first compound 0.2 µM): 0.178 | relative viability (IA-LM; first compound 0.002 µM): 0.918 | relative viability (IA-LM; first compound 0.006325 µM): 0.934 | relative viability (IA-LM; first compound 0.02 µM): 0.64 | relative viability (IA-LM; first compound 0.06325 µM): 0.077 | relative viability (IA-LM; first compound 0.2 µM): 0.0416 | relative viability (NCI-H1648; first compound 0.002 µM): 0.299 | relative viability (NCI-H1648; first compound 0.006325 µM): 0.502 | relative viability (NCI-H1648; first compound 0.02 µM): 0.344 | relative viability (NCI-H1648; first compound 0.06325 µM): 0.566 | relative viability (NCI-H1648; first compound 0.2 µM): 0.348 | relative viability (NCI-H2009; first compound 0.002 µM): 0.765 | relative viability (NCI-H2009; first compound 0.006325 µM): 0.594 | relative viability (NCI-H2009; first compound 0.02 µM): 0.705 | relative viability (NCI-H2009; first compound 0.06325 µM): 0.429 | relative viability (NCI-H2009; first compound 0.2 µM): 0.113 | relative viability (NCI-H2228; first compound 0.002 µM): 0.873 | relative viability (NCI-H2228; first compound 0.006325 µM): 0.503 | relative viability (NCI-H2228; first compound 0.02 µM): 0.54 | relative viability (NCI-H2228; first compound 0.06325 µM): 0.143 | relative viability (NCI-H2228; first compound 0.2 µM): 0.15

CCNC(=O)c1noc(-c2cc(C(C)C)c(O)cc2O)c1-c1ccc(CN2CCOCC2)cc1 [Luminespib] + O=C(c1cc(Cc2n[nH]c(=O)c3ccccc23)ccc1F)N1CCN(C(=O)C2CC2)CC1 [Olaparib] (partner 8 µM)
relative viability (A549; first compound 0.002 µM): 0.282 | relative viability (A549; first compound 0.006325 µM): 0.174 | relative viability (A549; first compound 0.02 µM): 0.194 | relative viability (A549; first compound 0.06325 µM): 0.0387 | relative viability (A549; first compound 0.2 µM): 0.0323 | relative viability (ABC-1; first compound 0.002 µM): 0.928 | relative viability (ABC-1; first compound 0.006325 µM): 1.02 | relative viability (ABC-1; first compound 0.02 µM): 0.526 | relative viability (ABC-1; first compound 0.06325 µM): 0.337 | relative viability (ABC-1; first compound 0.2 µM): 0.244 | relative viability (Calu-6; first compound 0.002 µM): 0.652 | relative viability (Calu-6; first compound 0.006325 µM): 0.545 | relative viability (Calu-6; first compound 0.02 µM): 0.696 | relative viability (Calu-6; first compound 0.06325 µM): 0.111 | relative viability (Calu-6; first compound 0.2 µM): 0.098 | relative viability (EBC-1; first compound 0.002 µM): 0.794 | relative viability (EBC-1; first compound 0.006325 µM): 0.586 | relative viability (EBC-1; first compound 0.02 µM): 0.572 | relative viability (EBC-1; first compound 0.06325 µM): 0.122 | relative viability (EBC-1; first compound 0.2 µM): 0.124 | relative viability (EMC-BAC-2; first compound 0.002 µM): 0.489 | relative viability (EMC-BAC-2; first compound 0.006325 µM): 0.482 | relative viability (EMC-BAC-2; first compound 0.02 µM): 0.471 | relative viability (EMC-BAC-2; first compound 0.06325 µM): 0.234 | relative viability (EMC-BAC-2; first compound 0.2 µM): 0.242 | relative viability (IA-LM; first compound 0.002 µM): 0.919 | relative viability (IA-LM; first compound 0.006325 µM): 0.785 | relative viability (IA-LM; first compound 0.02 µM): 0.816 | relative viability (IA-LM; first compound 0.06325 µM): 0.0533 | relative viability (IA-LM; first compound 0.2 µM): 0.0667 | relative viability (NCI-H1299; first compound 0.002 µM): 0.954 | relative viability (NCI-H1299; first compound 0.006325 µM): 0.921 | relative viability (NCI-H1299; first compound 0.02 µM): 0.959 | relative viability (NCI-H1299; first compound 0.06325 µM): 0.467 | relative viability (NCI-H1299; first compound 0.2 µM): 0.147 | relative viability (NCI-H1648; first compound 0.002 µM): 0.765 | relative viability (NCI-H1648; first compound 0.006325 µM): 0.653 | relative viability (NCI-H1648; first compound 0.02 µM): 0.784 | relative viability (NCI-H1648; first compound 0.06325 µM): 0.505 | relative viability (NCI-H1648; first compound 0.2 µM): 0.484 | relative viability (NCI-H1703; first compound 0.002 µM): 0.401 | relative viability (NCI-H1703; first compound 0.006325 µM): 0.358 | relative viability (NCI-H1703; first compound 0.02 µM): 0.651 | relative viability (NCI-H1703; first compound 0.06325 µM): 0.127 | relative viability (NCI-H1703; first compound 0.2 µM): 0.104 | relative viability (NCI-H2009; first compound 0.002 µM): 0.763 | relative viability (NCI-H2009; first compound 0.006325 µM): 0.67 | relative viability (NCI-H2009; first compound 0.02 µM): 0.701 | relative viability (NCI-H2009; first compound 0.06325 µM): 0.409 | relative viability (NCI-H2009; first compound 0.2 µM): 0.0486 | relative viability (NCI-H2228; first compound 0.002 µM): 0.595 | relative viability (NCI-H2228; first compound 0.006325 µM): 0.638 | relative viability (NCI-H2228; first compound 0.02 µM): 0.326 | relative viability (NCI-H2228; first compound 0.06325 µM): 0.128 | relative viability (NCI-H2228; first compound 0.2 µM): 0.142
